One assay concerns P. falciparum D10. Put plainly: Inhibition of in vitro P. falciparum culture, [3H]-hypoxanthine uptake, D10. The format is cell-based. The conditions noted are these: Plasmodium falciparum, D10, Erythrocyte, read-out: D10 IC50. The protocol:
(§1) P. falciparum strains D10, 3D7, HB3, and Dd2 were obtained from the Malaria Research and Reference Reagent Resource Center (Manassas, Va.). The parasite strains were maintained in vitro by method of Trager and Jensen. The inhibition of P. falciparum growth in the presence of drug was assessed by the relative reduction of [^3H]-hypoxanthine uptake as previously described. Inhibition data were fitted to Equation 1 using non-linear regression analysis except that the relative velocity of parasite growth was substituted for the rate of product formation.

The subject of assay [1] is P. falciparum D10-scDHODH. As to the kind of experiment: Inhibition of transgenic D10-scDHODH parasites, [3H]-hypoxanthine uptake. The format is cell-based. The conditions noted are these: for IC50: Plasmodium falciparum, D10, read-out: D10-scDHODH IC50; for efficacy against D10-scDHODH strain compared to D10 parent strain: dose-effect curves, FIG. 5. The protocol: as §1
Transgenic parasites expressing scDHODH were generated as described by Painter et al. except that full length scDHODH was cloned directly into the pGem3Z vector without a GFP tag. The resultant plasmid was transfected into ring stages of P. falciparum D10 by electroporation and maintained in culture using standard methods under the selection of WR99210.

The subject of the next assay is P. falciparum HB3. Put plainly: Inhibition of in vitro P. falciparum culture, [3H]-hypoxanthine uptake, HB3. The conditions noted are these: Plasmodium falciparum, HB3, Erythrocyte, read-out: HB3 IC50. The format is cell-based. The protocol: as §1
For another assay, the system named is P. falciparum Dd2. Put plainly: Inhibition of in vitro P. falciparum culture, [3H]-hypoxanthine uptake, Dd2. Particulars: for IC50: DD2, Erythrocyte, read-out: Dd2 IC50; for EC50: read-out: Dd2 EC50. The format is cell-based. The protocol: as §1
Another assay concerns P. falciparum 3D7. As to the kind of experiment: Inhibition of in vitro P. falciparum culture, [3H]-hypoxanthine uptake, 3D7. The format is cell-based. The conditions noted are these: for IC50: 3D7, Erythrocyte, read-out: 3D7 IC50; for EC50: read-out: 3D7 EC50. The protocol: as §1
Another assay concerns the target hsDHODH (Homo sapiens (Human), UniProt Q02127). Put plainly: DCIP assay, hsDHODH. The format is biochemical. Particulars: Table 2b; read-out: Hu (human DHODH) IC50. The source says: (§2) Type 2 DHODH activity was monitored with either the direct assay measuring the formation of orotate or via a chromogen reduction assay using DCIP. Although the extinction coefficient and absorption wavelength are preferable for the chromogen reduction assay, the inorganic electron acceptor DCIP can be utilized by DHODH as the final electron acceptor in lieu of CoQn when the endogenous substrate is at a low concentration. As such, the direct assay was used to measure the binding affinity of pfDHODH to CoQD and L-DHO. The enzymatic reaction was performed by varying the L-DHO concentration (1-400 μM) or CoQD concentration (1-200 μM) while keeping the other substrate constant and in excess. The formation of orotate was measured continuously at 296 nm (ε296=4.3 mM^−1 cm^−1). Inhibition of DHODH by small molecules was evaluated using the chromogen based assay with a final substrate concentration of 200 μM L-DHO, 18 μM CoQD, and 100 μM DCIP, unless otherwise noted. The reduction of DCIP was monitored at 600 nm (ε600=18.8 mM^−1 cm^−1).
(§3) Substrate specificity and enzyme inhibition data was analyzed with GraphPad Prism Version 4 for Windows (GraphPad Software). Kinetic constants were calculated by non-linear regression fitting of the data to the Michaelis-Menten equation [36]. IC50 values were determined by non-linear regression fitting of the data to Equation 1: […]

The next assay has as its target pfDHODH (Plasmodium falciparum (isolate 3D7), UniProt Q08210). Put plainly: DHODH chromogen reduction (DCIP) assay, pfDHODH. The format is biochemical, P. falciparum. Particulars: Table 2b; read-out: pfDHODH IC50.
Description: as §2, with “excess.” for “excess. The formation of orotate was measured continuously at 296 nm (ε296=4.3 mM^−1 cm^−1). Inhibition of DHODH by small molecules was evaluated using the chromogen based assay with a final substrate concentration of 200 μM L-DHO, 18 μM CoQD, and 100 μM DCIP, unless otherwise noted. The reduction of DCIP was monitored at 600 nm (ε600=18.8 mM^−1 cm^−1).”
as §3

[2] abbreviates: [3H]-hypoxanthine uptake by parasite infected erythrocytes.
[3] abbreviates: Plasmodium falciparum, [3H]-hypoxanthine uptake by parasite infected erythrocytes.
Setting [4] is: Plasmodium falciparum, DD2, Table 2b.
[5] abbreviates: Plasmodium falciparum, 3D7, Table 2b.

Read-outs that look alike come from different tables or passages of the source.

Chain of hsDHODH (Q02127 29-395 limits assumed): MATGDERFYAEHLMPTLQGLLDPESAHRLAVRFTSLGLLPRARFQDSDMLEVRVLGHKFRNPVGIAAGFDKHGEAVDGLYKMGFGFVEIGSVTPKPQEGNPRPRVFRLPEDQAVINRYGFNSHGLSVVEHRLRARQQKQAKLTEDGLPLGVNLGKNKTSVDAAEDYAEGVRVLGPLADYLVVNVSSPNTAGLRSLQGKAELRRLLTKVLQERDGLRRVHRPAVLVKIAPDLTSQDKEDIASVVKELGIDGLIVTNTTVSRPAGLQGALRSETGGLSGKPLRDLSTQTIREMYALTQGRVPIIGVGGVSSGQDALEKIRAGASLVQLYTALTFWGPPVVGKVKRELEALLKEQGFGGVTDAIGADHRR
Chain of pfDHODH (Q08210 159-565 limits assumed): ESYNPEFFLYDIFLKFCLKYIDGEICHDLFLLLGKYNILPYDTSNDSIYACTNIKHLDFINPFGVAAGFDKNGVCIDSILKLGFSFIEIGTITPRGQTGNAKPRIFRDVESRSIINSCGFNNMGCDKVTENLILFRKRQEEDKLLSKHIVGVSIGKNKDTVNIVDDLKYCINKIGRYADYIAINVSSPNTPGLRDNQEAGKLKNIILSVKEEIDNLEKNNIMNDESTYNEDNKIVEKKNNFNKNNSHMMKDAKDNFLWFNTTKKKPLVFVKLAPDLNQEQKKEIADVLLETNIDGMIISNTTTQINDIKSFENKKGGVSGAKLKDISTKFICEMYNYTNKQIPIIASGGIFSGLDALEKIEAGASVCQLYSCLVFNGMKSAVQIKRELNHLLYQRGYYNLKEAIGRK

For orientation: IC50 means the concentration needed to halve the response being measured. Turning to `CCN(CC)CCCC(C)Nc1ccnc2cc(Cl)ccc12` (stereo not shown) [Chloroquine, reference compound], the IC50 was 15 nM with P. falciparum D10; 13 nM in assay [1]; 8 nM with P. falciparum HB3; 180 nM with P. falciparum Dd2 (Plasmodium falciparum); 10 nM in the assay with P. falciparum 3D7 (Plasmodium falciparum). In addition, in assay [1], the “efficacy against D10-scDHODH strain compared to D10 parent strain” value is given as “equally sensitive”.

`CCc1nc(N)nc(N)c1-c1ccc(Cl)cc1` [Pyrimethamine, reference compound]: the IC50 in the assay on P. falciparum D10 (setting [2]) is 55 nM; in assay [1], 47 nM; in the assay on P. falciparum HB3 (setting [2]), 940 nM; in the assay with P. falciparum Dd2 (setting [3]) it was above 10000 nM; with P. falciparum 3D7 (setting [3]) it was 36 nM.

The term EC50 denotes the concentration that produces a half-maximal response. Take `Cc1cccc2c1nc(C)n2-c1ccc(C(=O)NC2CC2)s1` [Compound 65]: the IC50 at hsDHODH is above 30000 nM; at pfDHODH, 42 nM. The EC50 in the assay with P. falciparum Dd2 (setting [4]) stood at 13 nM; in the assay with P. falciparum 3D7 (setting [5]) it was 9 nM.

In the case of `CCNC(=O)c1ccc(-n2c(CC)nc3cc(F)ccc32)s1` [Compound 69], the IC50 is above 30000 nM at hsDHODH and 178 nM at pfDHODH. Also, the concentration for a half-maximal effect (EC50) came out at 361 nM with P. falciparum Dd2 (setting [4]) and 226 nM in the assay with P. falciparum 3D7 (setting [5]).

With `Cc1nc2ccc(OC(F)(F)F)cc2n1-c1ccc(C(=O)NC2CC2)s1` [Compound 58], the IC50 on hsDHODH is above 30000 nM; on pfDHODH, 36 nM. The EC50 with P. falciparum Dd2 (setting [4]) is 16 nM; in the assay on P. falciparum 3D7 (setting [5]), 9 nM.

Regarding `Cc1nc(-c2ccccc2)cn1-c1ccc(C(=O)NC2CC2)s1` [Compound 74], the IC50 at hsDHODH was above 30000 nM; at pfDHODH it was 220 nM. Further, the EC50 in the assay with P. falciparum Dd2 (setting [4]) is 206 nM; with P. falciparum 3D7 (setting [5]), 124 nM.

`CC(C)NC(=O)c1ccc(-n2cnc3ccccc32)s1` [Compound 36]: the IC50 on hsDHODH was above 30000 nM; on pfDHODH, 684 nM. The EC50 came to 812 nM with P. falciparum Dd2 (setting [4]) and 579 nM with P. falciparum 3D7 (setting [5]).

As to `CCNC(=O)c1ccc(-n2c(C)nc3cc(F)ccc32)s1` [Compound 53], the IC50 at hsDHODH is above 30000 nM; at pfDHODH, 164 nM. The results for the EC50 in the assay with P. falciparum Dd2 (setting [4]) and in the assay on P. falciparum 3D7 (setting [5]) were 106 nM and 66 nM, respectively.

Regarding `Cc1nc(-c2ccc(F)cc2)cn1-c1ccc(C(=O)NC2CC2)s1` [Compound 76], the IC50 on hsDHODH was above 30000 nM; at pfDHODH, 240 nM. For the same molecule, the EC50 was 217 nM in the assay on P. falciparum Dd2 (setting [4]) and 226 nM with P. falciparum 3D7 (setting [5]).

For `Cc1nc2ccccc2n1-c1ccc(C(=O)NC2CC2)s1` [Compound 32], the IC50 is above 30000 nM at hsDHODH and 74 nM at pfDHODH. The EC50 is 114 nM with P. falciparum Dd2 (Table 2b) and 105 nM with P. falciparum 3D7 (Table 2b).

With `CCNC(=O)c1ccc(-n2c(C)nc3cc(C)ccc32)s1` [Compound 62], the IC50 on hsDHODH is above 30000 nM; on pfDHODH it was 112 nM. The figures for the EC50 in the assay on P. falciparum Dd2 (setting [4]) and in the assay with P. falciparum 3D7 (setting [5]) were 87 nM and 89 nM, respectively.

Regarding `Cc1nc2ccccc2n1-c1ccc(C(=O)NC2CC2)s1` [Compound 31], the IC50 at hsDHODH was above 30000 nM; at pfDHODH, 99 nM. In addition, the EC50 amounted to 106 nM in the assay with P. falciparum Dd2 (setting [4]) and 66 nM with P. falciparum 3D7 (setting [5]).

Turning to `CCNC(=O)c1ccc(-n2cnc3cc(F)ccc32)s1` [Compound 68], the IC50 at hsDHODH was above 30000 nM; on pfDHODH, 105 nM. The EC50 turned out to be 132 nM in the assay on P. falciparum Dd2 (setting [4]) and 90 nM in the assay with P. falciparum 3D7 (setting [5]).

For `O=C1C(O)=C([C@H]2CC[C@H](c3ccc(Cl)cc3)CC2)C(=O)c2ccccc21` [Atovaquone, reference compound], the IC50 in the assay on P. falciparum D10 (setting [2]) was 0.42 nM; in assay [1] it was above 2000 nM; in the assay with P. falciparum HB3 (setting [2]) it was 0.22 nM; with P. falciparum Dd2 (setting [3]), 0.2 nM; in the assay on P. falciparum 3D7 (setting [3]), 0.18 nM. In addition, in assay [1], the “efficacy against D10-scDHODH strain compared to D10 parent strain” value is “significantly reduced drug efficacy”.

Values taken from patent US8703811B2, “Small molecule inhibitors of Plasmodium falciparum dihydroorotate dehydrogenase” (Genzyme Corporation, priority 2008, dated 2014).
